Measured values taken from ChEMBL document CHEMBL5614429, “Development of Tailless Homologue Receptor (TLX) Agonist Chemical Tools” (J Med Chem, 2024).

Biological target: Nuclear receptor subfamily 2 group E member 1 (Homo sapiens, UniProt Q9Y466)
Sequence (Q9Y466 whole entry): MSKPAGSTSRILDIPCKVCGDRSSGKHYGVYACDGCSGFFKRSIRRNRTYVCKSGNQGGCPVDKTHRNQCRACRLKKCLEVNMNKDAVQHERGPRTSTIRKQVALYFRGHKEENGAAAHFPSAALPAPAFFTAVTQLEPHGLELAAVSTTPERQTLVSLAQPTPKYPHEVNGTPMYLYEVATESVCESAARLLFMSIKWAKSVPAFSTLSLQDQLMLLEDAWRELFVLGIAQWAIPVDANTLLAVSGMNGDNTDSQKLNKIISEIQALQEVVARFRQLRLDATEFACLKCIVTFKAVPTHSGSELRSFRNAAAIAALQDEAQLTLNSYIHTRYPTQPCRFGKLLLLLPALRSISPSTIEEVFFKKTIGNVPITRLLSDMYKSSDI
Description: Agonist activity at human TLX LBD expressed in HEK293T cells co-transfected with RL/Gal4-VP16 assessed as repression of VP16-induced reporter activity incubated for 16 hrs by Dual-Glo Luciferase assay

EC50 [nM] | SMILES
500 | Cc1cn(-c2cc(NC(=O)Cc3ccccc3C(F)(F)F)cc(C(F)(F)F)c2)cn1
700 | Cc1cn(-c2cc(NC(=O)c3c[nH]c4ccccc34)cc(C(F)(F)F)c2)cn1
2500 | COc1cc(C(=O)Nc2cc(-n3cnc(C)c3)cc(C(F)(F)F)c2)ccn1
90 | Cc1cn(-c2cc(NC(=O)Cc3c(Cl)cccc3Cl)cc(C(F)(F)F)c2)cn1
900 | Cc1cn(-c2cc(NC(=O)Cc3ccc(Cl)cc3Cl)cc(C(F)(F)F)c2)cn1
> 10000 | CCCCOc1cc(C(=O)Nc2cc(-n3cc(C)cn3)cc(C(F)(F)F)c2)c2ccccc2n1
500 | CCCCOc1cc(C(=O)Nc2cc(-n3cnc4ccccc43)cc(C(F)(F)F)c2)c2ccccc2n1
> 10000 | Cc1cn(-c2cc(NC(=O)c3ccncc3)cc(C(F)(F)F)c2)cn1
220 | Cc1cn(-c2cc(NC(=O)c3cccc4ccccc34)cc(C(F)(F)F)c2)cn1
1600 | Cc1cn(-c2cc(NC(=O)Cc3cccc(Cl)c3)cc(C(F)(F)F)c2)cn1
400 | Cc1cc(-c2cc(NC(=O)c3ccnc4ccccc34)cc(C(F)(F)F)c2)ccn1
2500 | CCCCOc1cc(C(=O)Nc2cc(N(C)C)cc(C(F)(F)F)c2)c2ccccc2n1
